{
  "source": "patent US20140357512A1",
  "about": "“HISTONE DEACETYLASE (HDAC) BIOMARKERS IN MULTIPLE MYELOMA” (priority 2013, published 2014)",
  "tested_on": "human myeloma cell line MM.1S",
  "test": "SILAC acetylated-lysine peptide profiling, HDAC inhibitor vs DMSO (light/heavy ratio)",
  "type": "cell-based",
  "description": "An embodiment of the invention comprises utilizing the SILAC method in order to quantitate changes in protein expression between two or more populations of cells. The SILAC method is a technique based on mass spectrometry that detects differences in protein abundance among samples using non-radioactive isotopic labeling. The SILAC method is known in the art, and described in detail in Ong et al., “Stable Isotope Labeling by Amino Acids in Cell Culture, SILAC, as a Simple and Accurate Approach to Expression Proteomics”, Molecular & Cellular Proteomics, vol. 1, pp. 376-386 (2002), which is incorporated herein by reference in its entirety.\nBriefly, the SILAC method involves growing two populations of cells in cell culture. The first population of cells is grown in growth media containing normal amino acids (“normal media”). The second population of cells is grown in media lacking a standard essential amino acid (such as lysine), but is then supplemented with a non-radioactive, isotopically labeled form of that essential amino acid (such as lysine labeled with ^13C atoms, rather than normal ^12C atoms), which is called “heavy media”. When the two populations of cells are each growing in the medium, they incorporate the amino acids into all of their proteins. The growth of cells maintained in the heavy media is no different from that in normal media. All peptides containing the heavy amino acids are heavier than their normal counterparts. The cells from each of the two populations of cells are lysed. The lysates from each of the two cell populations are then combined. The combined cell lysates are then analyzed by mass spectrometry. Pairs of chemically identical peptides of different stable isotope composition can be differentiated in a mass spectrometer due to their difference in mass. The ratio of peak intensities in the mass spectrum for such peptide pairs reflects the abundance ratio for the two proteins.\nThis example describes SILAC studies that were performed to compare the effects of three different HDAC inhibitors (Compound A, Compound B, and tubastatin A) to a control on a human multiple myeloma cell line. The HDAC inhibitors were also compared amongst themselves to determine differences in their effects.\nA human myeloma cell line MM.1S was grown using either ^12C (light) or ^13C (heavy) lysine containing culture medium. The “heavy” cells were treated with DMSO as the control, and the “light” cells were treated with a single HDAC inhibitor at 37° C. for 6 hours. The heavy and light cells were lysed, and the lysates were mixed in 1:1 ratio and digested with the protease trypsin. The acetylated lysine containing peptides (due to the action of the HDAC inhibitor) in the digested peptide pool were captured by a non-specific anti-acetylated lysine antibody cocktail (the antibodies identify both light and heavy acetylated peptides), and subjected to mass spectrometry analysis in order to identify thousands of individual peptides.\nThousands of peptides were identified in pairs (^12C and ^13C) due to their known mass differences. The amino acid sequence and quantitative ratio (Light/Heavy) of a given peptide in two differentially treated cell lysates were then determined and annotated with their possible protein (gene) sources.\nAs stated above, three HDAC inhibitors (Compound A, Compound B, and Tubastatin A) were used. Thus, the SILAC method was performed three times, with a different HDAC inhibitor compared to a control each time. Accordingly, there are three pairs of quantitative data in the table below, i.e., Compound A:DMSO, Compound B:DMSO, and Tubastatin A:DMSO. A cut-off of 1.30 fold of change (increase or decrease) was then used to determine “changed” or “+” in the table, and any peptides with a fold of change less than 1.3 fold were determined to be “unchanged” or “0” in the table. Those peptides that were not identified were marked as “NA” in the table. […]",
  "data": [
    {"smiles": "O=C(NO)c1cnc(NC2(c3cccc(F)c3)CCCCC2)nc1", "note": "[Compound B, 2-((1-(3-fluorophenyl)cyclohexyl)amino)-N-hydroxypyrimidine-5-carboxamide]", "values": [
      {"measurement": "L/H ratio of acetylated peptide […](ac)SHR (SEQ ID NO: 56)", "setting": "IGLV2-14, IGLC2 [208], log 2 scale, drug vs DMSO", "result": 0.00},
      {"measurement": "light to heavy ratio (L/H ratio) of acetylated peptide, log 2 scale", "setting": "IGQGYLIK(ac)DGK (SEQ ID NO: 249), 60S ribosomal protein L3 [294], SNORD43, RPL3", "result": 0.00},
      {"measurement": "L/H ratio of acetylated peptide", "setting": "IIWHK(ac)FK (SEQ ID NO: 419), Isoform 1 of 39S ribosomal protein L47 mitochondrial [180], MRPL47", "result": "−0.73", "unit": "log 2"},
      {"measurement": "light to heavy ratio (L/H ratio) of acetylated peptide, log 2 scale", "setting": "IMK(ac)DLDQCR (SEQ ID NO: 217), Protein S100-A10 [57], S100A10", "result": 0.00},
      {"measurement": "L/H ratio of acetylated peptide", "setting": "IMK(ac)SEVLR (SEQ ID NO: 434), 26S protease regulatory subunit 6A [56], PSMC3", "result": 0.41, "unit": "log 2"},
      {"measurement": "L/H ratio of acetylated peptide", "setting": "IMQK(ac)YGFR (SEQ ID NO: 440), Splicing factor 45 [245], RBM17", "result": "−0.50", "unit": "log 2"},
      {"measurement": "light to heavy ratio (L/H ratio) of acetylated peptide, log 2 scale", "setting": "IQDK(ac)EGIPPDQQR (SEQ ID NO: 212), Ubiquitin-40S ribosomal protein S27a [33], RPS27A", "result": 0.00},
      {"measurement": "L/H ratio of acetylated peptide", "setting": "IQFK(ac)QDDGTGPEK (SEQ ID NO: 412), Isoform 1 of Far upstream element-binding protein 2 [359], KHSRP", "result": 0.61, "unit": "log 2"},
      {"measurement": "light to heavy ratio (L/H ratio) of acetylated peptide, log 2 scale", "setting": "ISK(ac)EVLAGR (SEQ ID NO: 167), Isoform Short of Heterogeneous nuclear ribonucleoprotein U [417], HNRNPU", "result": 0.00},
      {"measurement": "L/H ratio of acetylated peptide", "setting": "IYHPNVDK(ac)LGR (SEQ ID NO: 462), Ubiquitin-conjugating enzyme E2 N [82], UBE2N", "result": "−0.70", "unit": "log 2"},
      {"measurement": "light to heavy ratio (L/H ratio), log 2 scale, acetylated peptide LMK(ac)ICMNEDPAK (SEQ ID NO: 800)", "setting": "Integrin-linked protein kinase [426], gene ILK, drug:DMSO", "result": 0.00},
      {"measurement": "light to heavy ratio (L/H ratio) of acetylated peptide HAHGDQYK(ac)ATDFVADR (SEQ ID NO: 574)", "setting": "Isocitrate dehydrogenase [NADP] mitochondrial [180], gene IDH2, inhibitor:DMSO", "result": 0.00, "unit": "log 2"},
      {"measurement": "light to heavy ratio (L/H ratio) of acetylated peptide AGTFK(ac)MVFTPK (SEQ ID NO: 606)", "setting": "Isocitrate dehydrogenase [NADP] mitochondrial [193], gene IDH2, inhibitor:DMSO", "result": 0.00, "unit": "log 2"},
      {"measurement": "light to heavy ratio (L/H ratio) of acetylated peptide TDFDKNK(ac)IWYEHR (SEQ ID NO: 555)", "setting": "Isocitrate dehydrogenase [NADP] mitochondrial [282], gene IDH2, inhibitor:DMSO", "result": 0.00, "unit": "log 2"},
      {"measurement": "light to heavy ratio (L/H ratio) of acetylated peptide AVLIDK(ac)DQSPK (SEQ ID NO: 577)", "setting": "Isoform 1 of 3-hydroxyisobutyryl-CoA hydrolase mitochondrial [353], gene HIBCH, inhibitor:DMSO", "result": 0.00, "unit": "log 2"},
      {"measurement": "light to heavy ratio (L/H ratio) of acetylated peptide […](ac)VVQER (SEQ ID NO: 318)", "setting": "Isoform 1 of 39S ribosomal protein L47 mitochondrial [144], MRPL47, drug:DMSO", "result": 0.00, "unit": "log 2"},
      {"measurement": "light to heavy ratio (L/H ratio) of acetylated peptide ATVPK(ac)TEIR (SEQ ID NO: 272)", "setting": "Isoform 1 of 40S ribosomal protein S24 [37], RPS24, drug:DMSO", "result": 0.00, "unit": "log 2"},
      {"measurement": "light to heavy ratio (L/H ratio) of acetylated peptide ISK(ac)EEAMR (SEQ ID NO: 299)", "setting": "Isoform 1 of 60S ribosomal protein L11 [159], RPL11, drug:DMSO", "result": 0.00, "unit": "log 2"},
      {"measurement": "light to heavy ratio (L/H ratio) of acetylated peptide RPEILK(ac)QEIK (SEQ ID NO: 359)", "setting": "Isoform 1 of AP-2 complex subunit beta [318], AP2B1, drug:DMSO", "result": 0.57, "unit": "log 2"},
      {"measurement": "light to heavy ratio (L/H ratio) of acetylated peptide […](ac)ANVAK (SEQ ID NO: 364)", "setting": "Isoform 1 of ATP synthase subunit d mitochondrial [58], ATP5H, drug:DMSO", "result": 0.48, "unit": "log 2"},
      {"measurement": "light to heavy ratio (L/H ratio) of acetylated peptide VPVPEDK(ac)[…] (SEQ ID NO: 290)", "setting": "Isoform 1 of ATP synthase subunit d mitochondrial [85], ATP5H, drug:DMSO", "result": 0.00, "unit": "log 2"},
      {"measurement": "light to heavy ratio (L/H ratio) of acetylated peptide GHCPPAPAK(ac)PMHPENK(ac)LTNHGK (SEQ ID NO: 366)", "setting": "Isoform 1 of B-cell CLL/lymphoma 9-like protein [36:43], BCL9L, drug:DMSO", "result": 0.63, "unit": "log 2"},
      {"measurement": "light to heavy ratio (L/H ratio) of acetylated peptide VWNYK(ac)LR (SEQ ID NO: 593)", "setting": "Isoform 1 of Coatomer subunit alpha [81], gene COPA, inhibitor:DMSO", "result": 0.00, "unit": "log 2"},
      {"measurement": "light to heavy ratio (L/H ratio) of acetylated peptide SLLK(ac)PFCAALLK (SEQ ID NO: 329)", "setting": "Isoform 1 of Cytoskeleton-associated protein 5 [438], CKAP5, drug:DMSO", "result": 0.48, "unit": "log 2"},
      {"measurement": "light to heavy ratio (L/H ratio) of acetylated peptide ELEK(ac)VCNPIITK (SEQ ID NO: 612)", "setting": "Isoform 1 of Heat shock cognate 71 kDa protein [601], gene HSPA8, inhibitor:DMSO", "result": 0.00, "unit": "log 2"},
      {"measurement": "light to heavy ratio (L/H ratio) of acetylated peptide DVSYQGGK(ac)SIK (SEQ ID NO: 571)", "setting": "Isoform 1 of Histone-lysine N-methyltransferase MLL3 [758], gene MLL3, inhibitor:DMSO", "result": 0.00, "unit": "log 2"},
      {"measurement": "light to heavy ratio (L/H ratio) of acetylated peptide TLVLSDK(ac)HSPQK (SEQ ID NO: 523)", "setting": "Isoform 1 of Histone-lysine N-methyltransferase MLL3 [2809], gene MLL3, inhibitor:DMSO", "result": 0.00, "unit": "log 2"},
      {"measurement": "light to heavy ratio (L/H ratio) of acetylated peptide LVAENK(ac)FGK (SEQ ID NO: 296)", "setting": "Isoform 1 of Hydroxyacyl-coenzyme A dehydrogenase mitochondrial [301], HADH, drug:DMSO", "result": 0.00, "unit": "log 2"},
      {"measurement": "light to heavy ratio (L/H ratio) of acetylated peptide K(ac)[…] (SEQ ID NO: 316)", "setting": "Isoform 1 of L-lactate dehydrogenase A chain [318], LDHA, drug:DMSO", "result": 0.00, "unit": "log 2"},
      {"measurement": "light to heavy ratio (L/H ratio) of acetylated peptide INK(ac)ALDK (SEQ ID NO: 344)", "setting": "Isoform 1 of Myosin-9 [435], MYH9, drug:DMSO", "result": 0.43, "unit": "log 2"},
      {"measurement": "light to heavy ratio (L/H ratio) of acetylated peptide FYK(ac)[…] (SEQ ID NO: 596)", "setting": "Isoform 1 of N-alpha-acetyltransferase 50 NatE catalytic subunit [37], gene NAA50, inhibitor:DMSO", "result": 0.00, "unit": "log 2"},
      {"measurement": "light to heavy ratio (L/H ratio), log 2 scale, acetylated peptide […](ac)SK (SEQ ID NO: 767)", "setting": "Isoform 1 of Peripherin [288], gene PRPH, drug:DMSO", "result": 0.00}
    ]}
  ]
}
